Data on 22 compounds can be found in US10179782B2, “Substituted sulfonamide compounds” (Genentech, Inc., priority 2016, dated 2019).

The target of the assay is T1, human TRPA1 (Homo sapiens, UniProt O75762).
T1 construct: expressed in transfected cells; host or cells: CHO cells
T1 sequence (O75762 whole entry): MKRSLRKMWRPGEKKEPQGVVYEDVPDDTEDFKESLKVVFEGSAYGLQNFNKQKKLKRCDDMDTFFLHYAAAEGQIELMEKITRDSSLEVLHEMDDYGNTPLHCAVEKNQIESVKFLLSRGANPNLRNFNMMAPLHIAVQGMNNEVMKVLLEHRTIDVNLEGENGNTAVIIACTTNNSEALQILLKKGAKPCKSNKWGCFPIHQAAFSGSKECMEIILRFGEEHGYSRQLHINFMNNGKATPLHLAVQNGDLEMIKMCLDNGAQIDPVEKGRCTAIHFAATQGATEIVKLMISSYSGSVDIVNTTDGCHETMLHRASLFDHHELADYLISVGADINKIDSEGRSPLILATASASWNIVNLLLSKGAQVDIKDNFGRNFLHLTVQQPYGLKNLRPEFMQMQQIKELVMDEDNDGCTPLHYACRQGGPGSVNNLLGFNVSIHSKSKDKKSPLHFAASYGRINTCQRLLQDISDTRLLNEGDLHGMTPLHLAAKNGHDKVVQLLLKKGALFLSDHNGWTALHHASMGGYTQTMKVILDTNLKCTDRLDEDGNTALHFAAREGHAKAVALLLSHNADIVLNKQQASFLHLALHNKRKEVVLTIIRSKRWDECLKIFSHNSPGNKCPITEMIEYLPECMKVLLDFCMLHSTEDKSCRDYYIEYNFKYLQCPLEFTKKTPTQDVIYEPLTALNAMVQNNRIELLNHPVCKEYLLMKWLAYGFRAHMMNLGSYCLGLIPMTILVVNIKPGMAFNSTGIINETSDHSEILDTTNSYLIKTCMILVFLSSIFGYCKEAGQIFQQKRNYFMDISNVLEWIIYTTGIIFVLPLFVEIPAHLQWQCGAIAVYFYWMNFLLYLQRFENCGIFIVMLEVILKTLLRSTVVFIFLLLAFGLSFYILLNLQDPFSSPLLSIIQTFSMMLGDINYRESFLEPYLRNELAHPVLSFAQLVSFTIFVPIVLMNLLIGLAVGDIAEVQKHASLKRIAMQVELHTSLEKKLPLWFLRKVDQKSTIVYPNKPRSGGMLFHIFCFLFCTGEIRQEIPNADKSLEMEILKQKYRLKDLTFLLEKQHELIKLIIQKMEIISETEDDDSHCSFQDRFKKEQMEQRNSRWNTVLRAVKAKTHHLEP
Kind of assay: TRPA1 FLIPR Tetra calcium influx assay in CHO cells (block of cinnamaldehyde-induced calcium influx). Format: cell-based. The conditions noted are these: Table 2; CHO cells expressing TRPA1; agonist cinnamaldehyde 75 uM; 20 min compound incubation; Hill coefficient fixed to 1.5; read-out: hTRPA1 CHO Ca2+ AUC EVO (IC50). As to the method:
IC50s (effective concentration) of compounds on the human and rat TRPA1 channels were determined using a FLIPR Tetra instrument. CHO cells expressing TRPA1 were plated into 384-well plates, incubated overnight at 37 C, and loaded with BD calcium indicator dye for 1 hr at 37° C. followed by 15 minutes at room temperature. The assay buffer was Hank's Balanced Salt Solution (HBSS) containing 20 mM HEPES (pH readjusted to 7.4) along with 0.02% BSA.
Following dye load and plate cool down, compounds were added to the cells using FLIPR Tetra. Plates were then incubated with compounds for 20 minutes at room temperature prior to adding agonist. Following this incubation, ˜EC80 concentration of cinnamaldehyde (75 uM for human TRPA1 and 45 uM for rat TRPA1) was added to active the channels and block of cinnamaldehyde induced calcium influx was measured.
IC50s were fit with a standard Hill function, keeping the Hill coefficient (n) fixed to 1.5. Fixing the Hill coefficient will generally reduce variability of the IC50 determination. The IC50s were individually examined to make sure the MIN and MAX points were set correctly prior to validation of the results.
With `C[C@H]1[C@H](F)C[C@@H](C(=O)NCc2ccnc(-c3cnc(C(F)(F)F)nc3)c2)N1S(=O)(=O)c1ccc(F)cc1` [Example 38, (4R,5S)-4-fluoro-1-[(4-fluorobenzene)sulfonyl]-5-methyl-N-([2-[2-(trifluoromethyl)pyrimidin-5-yl]pyridin-4-yl]methyl)pyrrolidine-2-carboxamide], the IC50 (commonly the concentration that gives 50% inhibition) was 69.4 nM. With `C[C@H]1[C@H](F)C[C@@H](C(=O)NCc2cc(-c3cnc(C(F)(F)F)nc3)ncc2F)N1S(=O)(=O)c1ccncc1` [Example 39, (2S,4R,5S)-4-fluoro-N-((5-fluoro-2-(2-(trifluoromethyl)pyrimidin-5-yl)pyridin-4-yl)methyl)-5-methyl-1-(pyridin-4-ylsulfonyl)pyrrolidine-2-carboxamide] the figure was 630 nM; with `C[C@H]1[C@H](F)C[C@@H](C(=O)NCc2cn(-c3cnc(C(F)(F)F)nc3)nc2C(F)F)N1S(=O)(=O)c1ccc(F)cc1` [Example 40, (2S,4R,5S)-N-[[3-(difluoromethyl)-1-[2-(trifluoromethyl)pyrimidin-5-yl]-1H-pyrazol-4-yl]methyl]-4-fluoro-1-[(4-fluorobenzene)sulfonyl]-5-methylpyrrolidine-2-carboxamide], 43.1 nM. On to `C[C@H]1[C@H](F)C[C@@H](C(=O)NCc2cc(-c3cnc(C(F)(F)F)nc3)ncc2F)N1S(=O)(=O)c1cccc(F)c1` [Example 41, (2S,4R,5S)-4-fluoro-N-((5-fluoro-2-(2-(trifluoromethyl)pyrimidin-5-yl)pyridin-4-yl)methyl)-1-(3-fluorophenylsulfonyl)-5-methylpyrrolidine-2-carboxamide], for which the IC50 was determined as 40.5 nM. For `C[C@H]1[C@H](F)C[C@@H](C(=O)NCc2cc(-c3cnc(C(F)(F)F)nc3)nc(N3CCC3)n2)N1S(=O)(=O)c1ccc(F)cc1` [Example 42, (2S,4R,5S)-N-((2-(azetidin-1-yl)-2′-(trifluoromethyl)-4,5′-bipyrimidin-6-yl)methyl)-4-fluoro-1-(4-fluorophenylsulfonyl)-5-methylpyrrolidine-2-carboxamide], the IC50 was found to be 21.9 nM.

Consider `C[C@H]1[C@H](F)C[C@@H](C(=O)NCc2ccc(F)c(-c3cnc(C(F)(F)F)nc3)c2)N1S(=O)(=O)c1ccc(F)cc1` [Example 43, (2S,4R,5S)-4-fluoro-N-(4-fluoro-3-(2-(trifluoromethyl)pyrimidin-5-yl)benzyl)-1-(4-fluorophenylsulfonyl)-5-methylpyrrolidine-2-carboxamide], for which the IC50 was found to be 9.39 nM.

With `C[C@H]1[C@H](F)C[C@@H](C(=O)NCc2cc(-c3cnc(C(F)(F)F)nc3)ccc2F)N1S(=O)(=O)c1ccc(F)cc1` [Example 44, (2S,4R,5S)-4-fluoro-N-(2-fluoro-5-(2-(trifluoromethyl)pyrimidin-5-yl)benzyl)-1-(4-fluorophenylsulfonyl)-5-methylpyrrolidine-2-carboxamide], the IC50 was found to be 7.34 nM.

Consider `C[C@H]1[C@H](F)C[C@@H](C(=O)NCc2cc(F)cc(-c3cnc(C(F)(F)F)cn3)c2)N1S(=O)(=O)c1ccc(F)cc1` [Example 45, (2S,4R,5S)-4-fluoro-N-(3-fluoro-5-(5-(trifluoromethyl)pyrazin-2-yl)benzyl)-1-(4-fluorophenylsulfonyl)-5-methylpyrrolidine-2-carboxamide], for which the IC50 is 8.05 nM.

For the compound `C[C@H]1[C@H](F)C[C@@H](C(=O)NCc2cn(-c3cnc(C(F)(F)F)nc3)nc2C(F)(F)F)N1S(=O)(=O)c1ccc(F)cc1` [Example 46, (2S,4R,5S)-4-fluoro-1-(4-fluorophenylsulfonyl)-5-methyl-N-((3-(trifluoromethyl)-1-(2-(trifluoromethyl)pyrimidin-5-yl)-1H-pyrazol-4-yl)methyl)pyrrolidine-2-carboxamide], the IC50 came out at 26.2 nM. With `C[C@H]1[C@H](F)C[C@@H](C(=O)NCc2cc(OCc3ccc(F)cn3)c(F)cn2)N1S(=O)(=O)c1ccc(F)cc1` [Example 47, (2S,4R,5S)-4-fluoro-N-((5-fluoro-4-((5-fluoropyridin-2-yl)methoxy)pyridin-2-yl)methyl)-1-(4-fluorophenylsulfonyl)-5-methylpyrrolidine-2-carboxamide] the figure was 1900 nM; with `C[C@H]1[C@H](F)C[C@@H](C(=O)NCc2cc(OCc3cncc(C(F)(F)F)c3)c(F)cn2)N1S(=O)(=O)c1ccc(F)cc1` [Example 48, (2S,4R,5S)-4-fluoro-N-((5-fluoro-4-((5-(trifluoromethyl)pyridin-3-yl)methoxy)pyridin-2-yl)methyl)-1-(4-fluorophenylsulfonyl)-5-methylpyrrolidine-2-carboxamide], 105 nM; with `C[C@H]1[C@H](F)C[C@@H](C(=O)NCc2cc(-c3cnc(C(F)(F)F)nc3)c(C3CC3)cn2)N1S(=O)(=O)c1ccc(F)cc1` [Example 49, (2S,4R,5S)-N-[[5-cyclopropyl-4-[2-(trifluoromethyl)pyrimidin-5-yl]-2-pyridyl]methyl]-4-fluoro-1-(4-fluorophenyl)sulfonyl-5-methyl-pyrrolidine-2-carboxamide], 36.7 nM. The same measure for `C[C@H]1[C@H](F)C[C@@H](C(=O)NCc2cn([C@H]3CC[C@H](C(F)(F)F)CC3)nc2C(F)(F)F)N1S(=O)(=O)c1ccc(F)cc1` [Example 50, (2S,4R,5S)-4-fluoro-1-(4-fluorophenyl)sulfonyl-5-methyl-N-[[3-(trifluoromethyl)-1-[4-(trifluoromethyl)cyclohexyl]pyrazol-4-yl]methyl]pyrrolidine-2-carboxamide]: 50.5 nM; for `C[C@H]1[C@H](F)C[C@@H](C(=O)NCc2cc(-c3cnc(C(F)(F)F)nc3)ncc2C#N)N1S(=O)(=O)c1ccc(F)cc1` [Example 51, (2S,4R,5S)-N-[[5-cyano-2-[2-(trifluoromethyl)pyrimidin-5-yl]-4-pyridyl]methyl]-4-fluoro-1-(4-fluorophenyl)sulfonyl-5-methyl-pyrrolidine-2-carboxamide]: 15.5 nM; for `C[C@H]1[C@H](F)C[C@@H](C(=O)NCc2cc([C@H]3CC[C@@H](C(F)(F)F)CC3)c(F)cn2)N1S(=O)(=O)c1ccc(F)cc1` [Example 52, (2S,4R,5S)-4-fluoro-1-(4-fluorophenyl)sulfonyl-N-[[5-fluoro-4-[4-(trifluoromethyl)cyclohexyl]-2-pyridyl]methyl]-5-methyl-pyrrolidine-2-carboxamide]: 8.9 nM. The same measure for `C[C@H]1[C@H](F)C[C@@H](C(=O)NCc2cc([C@H]3CC[C@H](C(F)(F)F)CC3)c(F)cn2)N1S(=O)(=O)c1ccc(F)cc1` [Example 53, (2S,4R,5S)-4-fluoro-1-(4-fluorophenyl)sulfonyl-N-[[5-fluoro-4-[4-(trifluoromethyl)cyclohexyl]-2-pyridyl]methyl]-5-methyl-pyrrolidine-2-carboxamide]: 64.6 nM; for `C[C@H]1[C@H](F)C[C@@H](C(=O)NCc2cc([C@H]3CC[C@@H](C(F)(F)F)CC3)ncc2F)N1S(=O)(=O)c1ccc(F)cc1` [Example 54, (2S,4R,5S)-4-fluoro-1-(4-fluorophenyl)sulfonyl-N-[[5-fluoro-2-[4-(trifluoromethyl)cyclohexyl]-4-pyridyl]methyl]-5-methyl-pyrrolidine-2-carboxamide]: 6.38 nM; for `C[C@H]1[C@H](F)C[C@@H](C(=O)NCc2cc([C@H]3CC[C@H](C(F)(F)F)CC3)ncc2F)N1S(=O)(=O)c1ccc(F)cc1` [Example 55, (2S,4R,5S)-4-fluoro-1-(4-fluorophenyl)sulfonyl-N-[[5-fluoro-2-[4-(trifluoromethyl)cyclohexyl]-4-pyridyl]methyl]-5-methyl-pyrrolidine-2-carboxamide]: 5.89 nM. Take `C[C@H]1[C@H](F)C[C@@H](C(=O)NCc2cc(-c3cnc(C(F)(F)F)s3)ncn2)N1S(=O)(=O)c1ccc(F)cc1` [Example 56, (2S,4R,5S)-4-fluoro-1-(4-fluorophenyl)sulfonyl-5-methyl-N-[[6-[2-(trifluoromethyl)thiazol-5-yl]pyrimidin-4-yl]methyl]pyrrolidine-2-carboxamide]: the IC50 was 66.9 nM.

Regarding `O=C(NCc1cc(N2CCC(OC(F)(F)F)CC2)ncc1F)[C@@H]1C[C@@H](F)CN1S(=O)(=O)c1ccc(F)cc1` [Example 57, (2S,4R)-4-fluoro-1-(4-fluorophenyl)sulfonyl-N-[[5-fluoro-2-[4-(trifluoromethoxy)-1-piperidyl]-4-pyridyl]methyl]pyrrolidine-2-carboxamide], the IC50 is 49.4 nM. Regarding `C[C@H]1CCC[C@@H](C(=O)NCc2cc(-c3cnc(C(F)(F)F)nc3)ncc2F)N1S(=O)(=O)c1ccc(F)cc1` [Example 58, (2S,6S)-1-(4-fluorophenyl)sulfonyl-N-[[5-fluoro-2-[2-(trifluoromethyl)pyrimidin-5-yl]-4-pyridyl]methyl]-6-methyl-piperidine-2-carboxamide], the IC50 was 73.9 nM.

Take `O=C(NCc1cc(-c2ccc(S(F)(F)(F)(F)F)cc2)ncc1F)[C@@H]1C[C@@H](F)CN1S(=O)(=O)c1ccc(F)cc1` [Example 59, (2S,4R)-4-fluoro-N-[[5-fluoro-2-[4-(pentafluoro-sulfanyl)phenyl]-4-pyridyl]methyl]-1-(4-fluorophenyl)sulfonyl-pyrrolidine-2-carboxamide]: the IC50 stood at 161 nM.
